From paper PMC7305236, “The atypical chemokine receptor ACKR3/CXCR7 is a broad-spectrum scavenger for opioid peptides” (Nature Communications, 2020)
Read-outs that look alike come from different tables or passages of the source.

Assays:
Type in all cases: cell-based
[1] = Figure 7g: values after +LIH383, +LIH inverse, +CXCL12, +CXCL10
CXCR7 = target: T1, CXCR7 (Homo sapiens, UniProt P25106); assay: Figure S1a: screen of opioid peptides on CXCR7
T1 construct: expressed in transfected cells; host or cells: U87 cells
T1 sequence (P25106 whole entry): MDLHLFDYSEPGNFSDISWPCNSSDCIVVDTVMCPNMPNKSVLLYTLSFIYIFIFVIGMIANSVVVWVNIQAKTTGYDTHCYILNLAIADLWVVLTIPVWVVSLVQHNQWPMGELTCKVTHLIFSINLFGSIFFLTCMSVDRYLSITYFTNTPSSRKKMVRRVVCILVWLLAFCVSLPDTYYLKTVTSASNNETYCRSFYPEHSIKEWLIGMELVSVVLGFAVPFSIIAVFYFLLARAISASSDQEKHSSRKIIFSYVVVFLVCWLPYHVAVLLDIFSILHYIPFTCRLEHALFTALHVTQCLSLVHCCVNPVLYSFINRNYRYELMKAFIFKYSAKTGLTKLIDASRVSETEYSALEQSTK

CXCR4 = target: T2, CXCR4 (Homo sapiens, UniProt P61073)
T2 construct: expressed in transfected cells; host or cells: U87, transient cotransfection of pNBe vectors
T2 sequence (P61073 whole entry): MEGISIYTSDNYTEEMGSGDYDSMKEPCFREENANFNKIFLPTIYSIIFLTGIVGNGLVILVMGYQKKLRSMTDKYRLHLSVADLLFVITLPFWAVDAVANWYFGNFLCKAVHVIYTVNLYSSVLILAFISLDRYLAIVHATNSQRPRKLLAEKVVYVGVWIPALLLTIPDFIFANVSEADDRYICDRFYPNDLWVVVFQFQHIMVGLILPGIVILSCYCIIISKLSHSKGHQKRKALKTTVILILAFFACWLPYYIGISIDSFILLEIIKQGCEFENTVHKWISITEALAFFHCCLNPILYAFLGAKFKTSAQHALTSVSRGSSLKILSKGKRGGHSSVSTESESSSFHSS

CXCR3A = target: T3, CXCR3A (Homo sapiens, UniProt P49682); assay: Figure S1a: screen of opioid peptides on CXCR3A; details: replicate 1
T3 construct: expressed in transfected cells; host or cells: U87 cells
T3 sequence (P49682 1-368): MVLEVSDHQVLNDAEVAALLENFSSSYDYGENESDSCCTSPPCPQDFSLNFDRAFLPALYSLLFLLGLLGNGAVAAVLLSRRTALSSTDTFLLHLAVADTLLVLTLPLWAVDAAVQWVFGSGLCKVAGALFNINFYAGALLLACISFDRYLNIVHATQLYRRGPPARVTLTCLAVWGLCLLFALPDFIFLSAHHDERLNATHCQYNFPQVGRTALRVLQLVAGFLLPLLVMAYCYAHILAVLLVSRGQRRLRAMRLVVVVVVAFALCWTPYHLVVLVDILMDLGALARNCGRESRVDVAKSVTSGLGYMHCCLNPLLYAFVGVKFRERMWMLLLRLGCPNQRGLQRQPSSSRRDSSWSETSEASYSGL

U87 = assay: Figure S6 EC50 comparison, U87 cells + chemokine; details: U87 cells + the labelled chemokine, titrated agonist not given, read-out: Ec50 (inset, Ec50 comparison)
U87.ACKR3 = assay: Figure S6 EC50 comparison, U87.ACKR3 cells + chemokine; details: U87.ACKR3 cells + the labelled chemokine, titrated agonist not given, read-out: Ec50 (inset, Ec50 comparison)
[2] = Figure 7f: response to FBS, CXCL12, opioid peptides and LIH383 relative to Medium; details: Medium about 1
KOR [3] = target: T4, KOR (Homo sapiens, UniProt P41145); assay: Figure 6h, KOR level after ligand with DMSO or Bafilomycin; set-up: expressed in transfected cells; host or cells: U87 (human glioblastoma)
T4 sequence (P41145 whole entry): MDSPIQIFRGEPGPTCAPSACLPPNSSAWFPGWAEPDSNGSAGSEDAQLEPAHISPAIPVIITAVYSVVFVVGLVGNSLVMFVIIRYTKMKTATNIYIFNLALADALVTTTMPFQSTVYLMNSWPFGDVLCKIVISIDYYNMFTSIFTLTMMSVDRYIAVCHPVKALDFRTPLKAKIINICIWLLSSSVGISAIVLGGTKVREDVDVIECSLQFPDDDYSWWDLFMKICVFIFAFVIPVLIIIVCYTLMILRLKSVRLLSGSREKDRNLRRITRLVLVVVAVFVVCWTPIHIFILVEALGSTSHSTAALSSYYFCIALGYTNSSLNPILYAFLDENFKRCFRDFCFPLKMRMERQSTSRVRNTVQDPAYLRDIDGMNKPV

KOR [4] = target: T4, KOR; assay: Figure 6h, KOR, DMSO vs Bafilomycin treatment; set-up: expressed in transfected cells; host or cells: U87 (human glioblastoma); details: n = 3 or 4 as in cell

Substance | Figure 7g value ([1]; replicate 1) | Figure 7g value ([1]; replicate 2) | Figure 7g value ([1]; replicate 3) | Figure 7g value ([1]; replicate 4) | Figure S1a value, CXCR4 (CXCR4; replicate 1) | Figure S1a value, CXCR4 (CXCR4; replicate 2) | Figure S1a value, CXCR3A (CXCR3A) | EC50 (U87; replicate 1) [nM] | EC50 (U87; replicate 2) [nM] | EC50 (U87; replicate 3) [nM] | EC50 (U87.ACKR3; replicate 1) [nM] | EC50 (U87.ACKR3; replicate 2) [nM] | EC50 (U87.ACKR3; replicate 3) [nM] | further results
CXCL10 | 43.9358 | 53.1833 | 71.6583 | 66.9981 | 64.0305 | 102.577 | 79.87 | 6.8 | 9.32 | 14 | 17.2 | 18.1 | 19.3 | Figure S1a value, CXCR7 (CXCR7; replicate 1): 93.7533; Figure S1a value, CXCR7 (CXCR7; replicate 2): 74.5914; EC50 (U87.ACKR3; replicate 4): 29.1 nM
CXCL12 | 102.594 | 103.187 | 90.4001 | 88.8058 | 122.173 | 86.6576 | 103.792 | 2.9 | 11 | 6.04 | 7.39 | 9.3 | 13.1 | Figure 7f value ([2]; replicate 1): 0.8915; Figure 7f value ([2]; replicate 2): 0.9254; Figure 7f value ([2]; replicate 4): 0.9153; EC50 (U87; replicate 4): 5.61 nM; KOR level after ligand (Figure 6h) (KOR [3]; Bafilomycin, replicate 1): 115.399; KOR level after ligand (Figure 6h) (KOR [3]; Bafilomycin, replicate 2): 101.029; KOR level after ligand (Figure 6h) (KOR [3]; Bafilomycin, replicate 3): 116.035; KOR level after ligand (Figure 6h) (KOR [3]; Bafilomycin, replicate 4): 117.81; KOR level after ligand (Figure 6h) (KOR [3]; DMSO, replicate 1): 95.0504; KOR level after ligand (Figure 6h) (KOR [3]; DMSO, replicate 3): 120.17; KOR level after ligand (Figure 6h) (KOR [3]; DMSO, replicate 4): 114.207; Mean ± SEM (Figure 6h, KOR) (KOR [4]; 'DMSO vs Bafilomycin treatment'): 112,6 ± 3,88, n=4; Mean ± SEM (Figure 6h, KOR) (KOR [4]; first of two columns under 'DMSO vs Bafilomycin treatment' (presumably DMSO)): 107,9 ± 5,673, n=4
